Data reported in ChEMBL document CHEMBL1201862, “PubChem BioAssay data set” (2004).
Active and inactive are the calls of the source. Cut-off read from the data, not from the text of the source: actives have a measured IC50 and inactives only a lower limit.

Target: Envelope glycoprotein gp160 (Human immunodeficiency virus 1, UniProt Q6QLK5)
Assay: cell-free HIV fusion peptide-binding blockers – biochemical, uHTS, fluorescence dequenching, […] (AID 1986)

Envelope glycoprotein gp160, sequence (Q6QLK5 whole entry, the tested form may be a part): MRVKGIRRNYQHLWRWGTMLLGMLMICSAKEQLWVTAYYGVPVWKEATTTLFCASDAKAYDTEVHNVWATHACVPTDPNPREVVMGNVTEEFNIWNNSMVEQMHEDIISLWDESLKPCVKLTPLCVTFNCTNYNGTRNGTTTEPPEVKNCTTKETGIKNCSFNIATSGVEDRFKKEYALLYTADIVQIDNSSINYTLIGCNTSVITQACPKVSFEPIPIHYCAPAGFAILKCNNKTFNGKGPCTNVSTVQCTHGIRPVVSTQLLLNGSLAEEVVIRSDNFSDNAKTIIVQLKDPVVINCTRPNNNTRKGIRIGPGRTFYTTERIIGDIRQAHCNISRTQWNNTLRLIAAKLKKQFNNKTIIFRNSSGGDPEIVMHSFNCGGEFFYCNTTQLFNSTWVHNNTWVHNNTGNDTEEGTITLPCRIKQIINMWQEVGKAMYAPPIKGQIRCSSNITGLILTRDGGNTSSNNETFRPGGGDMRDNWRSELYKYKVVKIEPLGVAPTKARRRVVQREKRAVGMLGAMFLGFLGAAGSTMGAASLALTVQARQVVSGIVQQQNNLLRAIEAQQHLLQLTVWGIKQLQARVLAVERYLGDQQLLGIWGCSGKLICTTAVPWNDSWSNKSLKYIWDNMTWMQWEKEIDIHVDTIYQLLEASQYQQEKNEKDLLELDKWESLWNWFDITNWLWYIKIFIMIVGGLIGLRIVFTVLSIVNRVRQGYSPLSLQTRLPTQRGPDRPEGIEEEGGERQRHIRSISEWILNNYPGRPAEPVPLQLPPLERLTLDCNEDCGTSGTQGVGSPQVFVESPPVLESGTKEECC

**Q.** For O=C(O)c1ccc(-c2ccc(/C=c3/sc4nc5ccccc5n4c3=O)o2)cc1Cl, which IC50 is on record?
**A.** 13.7 µM (active)
